US7700300B2, “Screening of compounds for GAT2 transporter activity” (XenoPort, Inc., priority 2005, dated 2010)

Tests used:
[1] = target: T1, hGAT2 (Homo sapiens, UniProt Q9NSD5); assay: hGAT2 competition uptake assay with 3H-GABA in HEK-TREx-hGAT2 cells; assay type: cell-based
T1 construct: expressed in transfected cells; host or cells: HEK-TREx cells (HEK-TREx-GAT2 inducible cell line)
T1 sequence (Q9NSD5 1-602): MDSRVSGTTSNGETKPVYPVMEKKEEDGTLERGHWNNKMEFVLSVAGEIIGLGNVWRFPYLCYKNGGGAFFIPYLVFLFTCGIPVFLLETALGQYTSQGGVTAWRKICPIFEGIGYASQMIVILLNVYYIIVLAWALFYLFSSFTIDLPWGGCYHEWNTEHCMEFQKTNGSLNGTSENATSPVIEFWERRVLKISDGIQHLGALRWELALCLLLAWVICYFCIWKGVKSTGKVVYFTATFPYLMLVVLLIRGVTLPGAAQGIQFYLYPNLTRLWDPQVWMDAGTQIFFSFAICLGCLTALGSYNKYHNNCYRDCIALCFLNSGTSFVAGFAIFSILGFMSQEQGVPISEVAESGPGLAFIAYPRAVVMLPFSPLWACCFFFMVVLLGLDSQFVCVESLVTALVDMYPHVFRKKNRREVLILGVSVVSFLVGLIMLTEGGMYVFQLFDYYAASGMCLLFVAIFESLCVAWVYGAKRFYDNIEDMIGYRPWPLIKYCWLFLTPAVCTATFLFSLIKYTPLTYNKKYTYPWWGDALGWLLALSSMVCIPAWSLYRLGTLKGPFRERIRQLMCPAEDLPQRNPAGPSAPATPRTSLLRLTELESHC
Description: A modified competition uptake assay can be developed to determine the ability of a test compound(s) to inhibit the uptake of radiolabeled substrates into HEK-TREx-hGAT2 cells induced to over-express hGAT2. The results can be stated as affinities (IC50).
The competition uptake assay is prepared as follows: Compounds are prepared for assay by diluting a 100 mM stock concentration (in DMSO) to the appropriate working concentration. Typically, seven-point dose response curves are prepared starting at a final assay concentration of 1 mM and carrying out three-fold dilutions. […]
Scintillation fluid (200 μl) (Optiphase Supermix (Perkin Elmer) is added to each well, and the plate is covered with a 96-well adhesive plate cover and placed on a shaker for 10 minutes. The plates are counted on a 96-well plate scintillation counter for 60 sec/well. The data are analyzed using a sigmoidal dose response curve-fitting program (Prism, GraphPad, Inc, San Diego, Calif.; equation: one-site competition).
FIG. 2 depicts the results of a competition experiment using HEK-TREx-GAT2 cells. ^3H-GABA was used as the substrate and unlabeled GABA was used as the competitor. […] Non-specific uptake was determined by measuring the uptake into cells not induced to express the transporter (“no tet”). […]

[2] = target: T2, PgP (Homo sapiens, UniProt P08183); assay: Transwell monolayer efflux assay in MDCK cells with TREx-PgP; assay type: cell-based; details: 2.5 nM 3H-vinblastine, 250 μM verapamil
T2 construct: expressed in transfected cells; host or cells: MDCK cells
Description: Transwell monolayer efflux assays can be performed by transfecting MDCK cells with the tetracycline-inducible TREx-PgP expression vector. The cells optionally can be transfected with a nucleic acid encoding the transporter of interest. The transfected cells are seeded on polycarbonate filter membranes in transwell dishes and grown for 3-5 days, yielding a polarized monolayer with tight junctions between cells.

T2 sequence (P08183 whole entry): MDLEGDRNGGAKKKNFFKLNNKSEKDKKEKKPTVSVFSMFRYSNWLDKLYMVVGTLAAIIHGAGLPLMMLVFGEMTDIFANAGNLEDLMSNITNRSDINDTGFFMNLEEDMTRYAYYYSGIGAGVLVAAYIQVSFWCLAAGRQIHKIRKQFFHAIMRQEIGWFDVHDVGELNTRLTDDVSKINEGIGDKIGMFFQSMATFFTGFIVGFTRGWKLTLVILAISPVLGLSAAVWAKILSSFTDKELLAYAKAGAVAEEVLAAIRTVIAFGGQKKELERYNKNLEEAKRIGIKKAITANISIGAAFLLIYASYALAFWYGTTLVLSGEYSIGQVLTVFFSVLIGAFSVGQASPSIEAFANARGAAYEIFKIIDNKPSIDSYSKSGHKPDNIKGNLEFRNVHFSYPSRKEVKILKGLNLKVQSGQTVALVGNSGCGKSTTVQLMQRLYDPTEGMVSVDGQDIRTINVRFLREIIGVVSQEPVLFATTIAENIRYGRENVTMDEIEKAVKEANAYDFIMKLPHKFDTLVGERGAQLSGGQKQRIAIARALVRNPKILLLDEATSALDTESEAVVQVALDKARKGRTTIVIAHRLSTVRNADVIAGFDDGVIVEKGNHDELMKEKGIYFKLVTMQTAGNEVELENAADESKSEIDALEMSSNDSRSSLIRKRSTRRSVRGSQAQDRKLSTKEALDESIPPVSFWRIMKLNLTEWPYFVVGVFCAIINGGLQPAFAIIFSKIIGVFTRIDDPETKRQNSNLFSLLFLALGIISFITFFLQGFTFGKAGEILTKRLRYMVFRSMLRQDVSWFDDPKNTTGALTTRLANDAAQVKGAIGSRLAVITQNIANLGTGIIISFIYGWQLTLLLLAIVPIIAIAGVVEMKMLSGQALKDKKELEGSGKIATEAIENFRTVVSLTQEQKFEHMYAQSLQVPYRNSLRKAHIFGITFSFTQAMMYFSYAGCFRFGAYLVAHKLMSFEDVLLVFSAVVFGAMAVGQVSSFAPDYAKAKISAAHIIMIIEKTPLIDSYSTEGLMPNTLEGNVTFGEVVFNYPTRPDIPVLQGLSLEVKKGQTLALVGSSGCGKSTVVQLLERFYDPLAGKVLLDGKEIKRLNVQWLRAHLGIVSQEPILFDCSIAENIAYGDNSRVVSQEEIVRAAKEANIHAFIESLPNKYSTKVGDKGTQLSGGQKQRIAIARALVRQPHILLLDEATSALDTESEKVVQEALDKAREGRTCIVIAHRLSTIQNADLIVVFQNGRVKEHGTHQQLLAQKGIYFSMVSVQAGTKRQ

## NCCCC(=O)O [GABA, gamma-aminobutyric acid]
[1]; HEK-TREx-GAT2 cells induced to express GAT2, FIG. 2
  uptake of labeled GABA as concentration of unlabeled GABA increased: decreased
[1]; HEK-TREx-GAT2 cells induced to express hGAT2, 3H-GABA as substrate
  IC50: 13 µM

## CC[C@]1(O)C[C@@H]2CN(CCc3c([nH]c4ccccc34)[C@@](C(=O)OC)(c3cc4c(cc3OC)N(C)[C@H]3[C@@](O)(C(=O)OC)[C@H](OC(C)=O)[C@]5(CC)C=CCN6CC[C@]43[C@@H]65)C2)C1 [^3H-vinblastine, vinblastine]
[2]
  Apical to basolateral transport in the presence of verapamil: strongly increased
  Basolateral to apical transport in the presence of verapamil: strongly decreased
